From patent publication US8501787B2, “Compounds for the inhibition of angiogenesis and use thereof” (Shire Orphan Therapies GmbH, priority 2004, dated 2013) come the findings set out here.

In assay [1] the target is T1, integrin alphaIIbbeta3 (Homo sapiens, UniProt P05106+P08514).
T1 construct: purchased Kordia (Kordia Life Science, Leiden, Netherlands)
In words: AlphaIIbbeta3-Fibrinogen binding assay (competitive ELISA). The conditions noted are these: inhibition of integrin binding to fibrinogen; read-out: IC50 alphabIIbbeta3 in nM. The protocol: (§1) The optimal concentrations of integrin and ligand were selected from ELISA binding studies with variable concentrations of both to obtain optimal signal noise ratio for further studies. IC50 studies were performed with fixed concentration of ligand and integrin and a serial dilution of inhibitor. The plates were measured with SpectraMax Plus reader (Molecular Devices). The resulting inhibition curves were analyzed using SoftMaxPro 4.0 software, the turning point describes the IC50 value.
(§2) Fibronectin and Vitronectin were purchased from Sigma, fibrinogen from Calbiochem. (EMD Biosciences, Darmstadt, Germany) The integrin alpha5beta1 extracellular domain Fc-fusion was expressed and purified as described in (Coe, 2001, JBC, 276, 35854). Integrins alphavbeta3 and alphavbeta5 were purchased from Chemicon (Chemicon Europe, Germany) and alphaIIbbeta3 form Kordia (Kordia Life Science, Leiden, Netherlands)
Fibrinogen was diluted with coating buffer (15 mM Na2CO3, 35 mM NaHCO3, pH9.6) and coated with 100 μL/well to Nunc-Immuno maxisorp plates over night at 4° C. After discarding the coating solution plates were washed 3 times with buffer 1 (25 mM Tris, pH7.6, 150 mM NaCl, 1 mM MnCl2, 1 mg/mL BSA) and blocked with 100 μL blocking buffer (3% BSA in PBS 0.1% Tween20) for 1 hour at room temperature. […] The developed colour was measured at 450 nm and analyzed as described above.

Assay [2] deals with T2, integrin alpha5beta1 (Homo sapiens, UniProt P05556+P08648).
T2 construct: The integrin alpha5beta1 extracellular domain Fc-fusion was expressed and purified; made in house
Nature of the assay: Alpha5beta1-Fibronectin binding assay (competitive ELISA). The procedure: as §1, §2
Fibronectin was diluted with coating buffer (15 mM Na2CO3, 35 mM NaHCO3, pH9.6) and coated with 100 μL/well to Nunc-Immuno maxisorp plates (Nalge Nunc Europe Ltd) over night at 4° C. After discarding the coating solution plates were washed 3 times with buffer 1 ([…], pH7.6, 150 mM NaCl, 1 mM […], 1 mg/mL BSA) and blocked with 100 μL blocking buffer (3% BSA in PBS 0.1% Tween20) for 1 hour at room temperature. After washing the blocked plates (3 times) with buffer 1, integrin (50 μL) and either inhibitor (serial dilution in buffer 1) or buffer 1 (50 μL) were added to the wells and incubated for one hour at RT. Plates were then washed (3 times) with buffer 1 and incubated with 100 μL of anti-human-Fc-HRP antibody conjugate (Sigma-Aldrich, Taufkirchen, Germany) in buffer 1 for 1 hour at RT. After additional washing steps (3 times) with buffer 1 50 μL of HRP substrate solution TMB (Seramun, Germany) were added to the wells. Colour development was stopped after 3-5 minutes with 50 μL 1M H2SO4. The developed colour was measured at 450 nm and analyzed as described above.
A general note: An ELISA detects its analyte on a solid surface through an enzyme-linked reagent.

Assay [3] concerns the target T3, integrin alphavbeta5 (Homo sapiens, UniProt P06756+P18084).
T3 construct: purchased Chemicon (Chemicon Europe, Germany)
Nature of the assay: Vitronectin binding assay, alphavbeta5 (competitive ELISA). The conditions noted are these: inhibition of integrin binding to vitronectin. The procedure:
as §1, §2
Vitronectin was diluted with coating buffer (15 mM Na2CO3, 35 mM NaHCO3, pH9.6) and coated with 50 μL/well to Nunc-Immuno maxisorp plates over night at 4° C. […]
Plates were then washed (3 times) with buffer 2 and incubated with 50 μL of anti-alphavbeta5 antibody (Chemicon) in buffer 2 for 1 hour at RT. […] The developed colour was measured at 450 nm and analyzed as described above.

The test system of assay [4] is retinal angiogenesis. Nature of the assay: Physiological retinal angiogenesis at newborn rats. It is filed as in vivo, Sprague Dawley rats. The conditions noted are these: intravitreal injection at P1 and P3, evaluated at P6, compared to vehicle treated and non-treated eye. From the text: Rats are born with a completely avascular retina with physiological retinal vascular development occurring in a centripetal manner within the first two weeks of life. At postnatal day P6 approximately 65% is physiologically vascularized, with vascularization being complete by P10-14.
Sprague Dawley rats were used according to protocols which are in conformity with the Association for Research in Vision and Ophthalmology's statements on the Use of Animals in Ophthalmic Research.
Rat pups were taken from within 24 h of birth and injected intravitreally at P1 with 3 μL of selected compound solved in saline. The same injection was repeated at P3. Controls include vehicle injected, as well as uninjected eyes. The animals were sacrificed by decapitation at P6. Upon sacrifice the eyes were enucleated and fixed in 10% buffered formalin phosphate (Fisher Scientific) for 30 minutes at RT. The retinas were dissected and post-fixed in methanol for 10 minutes at −20° C. The retinas were washed with 1% Triton X-100 in PBS and incubated overnight with a 1/100 solution of TRITC conjugated lectin griffonia simplicifolia (Sigma-Aldrich) in 1% Triton X-100 in PBS. […] The percentage of total vascularized area was calculated as a percent of the vascularized area over the total surface area (Adobe-Photoshop).

Assay [5] has as its target T4, integrin alphavbeta3 (Homo sapiens, UniProt P05106+P06756).
T4 construct: purchased Chemicon (Chemicon Europe, Germany)
In words: Vitronectin binding assay, alphavbeta3 (competitive ELISA). The conditions noted are these: inhibition of integrin binding to vitronectin. The protocol: as §1, §2
Vitronectin was diluted with coating buffer (15 mM Na2CO3, 35 mM NaHCO3, pH9.6) and coated with 100 μL/well to Nunc-Immuno maxisorp plates over night at 4° C. After discarding the coating solution plates were washed 3 times with buffer 1 (25 mM Tris, pH7.6, 150 mM NaCl, 1 mM MnCl2, 1 mg/mL BSA) and blocked with 100 μL blocking buffer (3% BSA in PBS 0.1% Tween20) for 1 hour at room temperature. […] The developed colour was measured at 450 nm and analyzed as described above.

The test system of assay [6] is K562 erythroleukemia cells. Nature of the assay: Cell adhesion assay with K562 on fibronectin. It is filed as cell-based. The conditions noted are these: at 0.5 μM; OD 570. The procedure: K562 erythroleukemia cells were obtained from the German Collection of Microorganisms and Cell Cultures GmbH (DMSZ, Braunschweig, Germany). Cells were cultured in RPMI medium containing 10% fetal calf serum, 2 mM glutamine and 100 U/mL penicillin-streptomycin (all from Biochrom AG, Germany).
The cell adhesion assays were performed in 96-well Nunc-Immuno maxisorp plates. The wells were coated for 1 h at 37° C. with 100 μL aliquots of fibronectin (10 μg/mL in phosphate-buffered-saline, 120-kDa fragment, Chemicon Europe, Germany), then blocked with 10 mg/mL heat denatured BSA in phosphate buffer for 30 min.
K562 cells were resuspended to 4×10^6 cells/mL in […], 25 mM Hepes, 2 mM EDTA, pH 7.4, and incubated for 30 min at 37° C. As a next step the cells were washed two times with the same buffer. 100 μL cell aliquots were then added to 100 μL aliquots of the same buffer with in addition 4 mM MgCl2, […] and different concentrations of compounds. These samples were preincubated for 30 min at 37° C. After that 100 μL aliquots were transferred to the microtiter wells and the cells were allowed to adhere to the substrate for 30 min at 37° C. in a humidified atmosphere of 5% CO2. […]
The absorbance of each well at 570 nm was then measured using the SpectraMax Plus reader. […]

The mark [7] stands for this setting: inhibition of integrin binding to fibronectin, read-out: IC50 alpha5beta1 in nM.
Where [8] appears, read: method of section 1.1, read-out: Group (binding activities to integrin alpha5beta1).

Like-named read-outs stand apart in the source and are kept apart here.

As to `Cc1cc(C)c(S(=O)(=O)N[C@@H](CNC(=O)CO[C@@H]2C[C@@H](CNc3ccccn3)N(C(=O)OCc3ccccc3)C2)C(=O)O)c(C)c1` [Compound 5, 12S,14R,30S-4-{[2-Carboxy-2-(2,4,6-trimethyl-benzenesulfonylamino)-ethylcarbamoyl]-methoxy}-2-(pyridin-2-ylaminomethyl)-pyrrolidine-1-carboxylic acid benzyl ester], the IC50 in assay [1] is 9000 nM; in assay [2] (setting [7]), 3.7 nM; in assay [2] (setting [8]) it was below 10 nM; in assay [3], 230 nM; in assay [5] it was 11.6 nM. The “retinal angiogenesis (vessel area, % of total retinal area)” value in assay [4] was “significantly reduced”.

Consider `Cc1cc(C)c(C(=O)N[C@@H](CNC(=O)CO[C@@H]2C[C@@H](CNc3ccccn3)N(C(=O)OCc3ccccc3)C2)C(=O)O)c(C)c1` [Compound 71, 4-{[2-Carboxy-2-(2,4,6-trimethyl-benzoylamino)-ethylcarbamoyl]-methoxy}-2-(pyridin-2-ylaminomethyl)-pyrrolidine-1-carboxylic acid benzyl ester], for which the IC50 in assay [1] is above 50000 nM; in assay [2] (setting [7]), 2.4 nM; in assay [2] (setting [8]) it was below 10 nM; in assay [3], above 50000 nM; in assay [5] it was around 30000 nM. Also, the “inhibition of K562 cell adhesion to fibronectin” value in assay [6] is on record as “significantly active in inhibiting cell adhesion”.
